Read-outs that look alike come from different tables or passages of the source.
Key:
[1] = tested on: house flies, Musca domestica; assay: whole plant or invertebrate; assay type: in vivo; conditions: read-out: House flies LD50
Protocol: In another series of tests, stock 1% concentrated solutions of each of the test compounds of Table I below, and of the commercial related carbamate ester insecticides methomyl, carbofuran and oxamyl, were made in acetone, and such solutions were diluted with acetone to a concentration of 0.001-0.8%. House flies were treated topically on the notum by 1 μl of each of the diluted acetone solutions and percent mortality was counted 24 hours after application.

[2] = Mammalian toxicity, oral, Swiss white mice (LD50); assay type: in vivo; conditions: mouse, in vivo, propylene glycol carrier
Protocol: For mice toxicity, the compound was dissolved in propyleneglycol or corn oil as a carrier and all compounds were tested at the level up to 1,000 mg/kg. All of the above noted compounds tested were lower in toxicity as compared with the parent compounds.
Mammalian toxicity was determined against Swiss white mice.

[3] = topical on the notum, 1 μl of 0.001-0.8% acetone solutions, 24 hours, 60° F

Structure (SMILES)	LD50 [1, 3]	LD50 [2]	LD50 ([1]; topical, 24 h)
CSC(C)=NOC(=O)N(C)S(=O)OCCOS(=O)N(C)C(=O)ON=C(C)SC (centres unmarked) [Example I, N,N'-(1,2-ethanedioxysulfinyl)-bis (S-methyl N-methylcarbamoyloxy-thioacetimidate)]	60 mg/kg	52 mg/kg	–
CN(C(=O)Oc1cccc2c1OC(C)(C)C2)S(=O)OCCCOS(=O)N(C)C(=O)Oc1cccc2c1OC(C)(C)C2 (centres unmarked) [Example II, N,N'-(1,3-Propanedioxysulfinyl)-bis (2,3-dihydro-2,2-dimethylbenzofuranyl-7 methylcarbamate)]	–	92 mg/kg	17 mg/kg
CSC(C)=NOC(=O)N(C)S(=O)OCC1COC(C)(C)O1 (centres unmarked) [Example III, S-methyl N-(2,2-dimethyl-1,3-dioxolane-5-yl-methoxysulfinyl)-N-methylcarbamoyloxythioacetimidate]	7 mg/kg	84 mg/kg	–
CSC(C)=NOC(=O)N(C)[S+]([O-])SCCS[S+]([O-])N(C)C(=O)ON=C(C)SC (centres unmarked) [Example VIII, N,N'-(1,2-Ethanedithiosulfinyl)-bis (S-methyl N-methylcarbamoyloxy thioacetimidate)]	75 mg/kg	250 mg/kg	–
CN(C(=O)Oc1cccc2c1OC(C)(C)C2)[S+]([O-])SCCS[S+]([O-])N(C)C(=O)Oc1cccc2c1OC(C)(C)C2 (centres unmarked) [IX]	–	87 mg/kg	36 mg/kg
CSC(C)=NOC(=O)N(C)S(=O)OC1COC(c2ccccc2)OC1 (centres unmarked) [X, S-Methyl N-(2-phenyl-1,3-dioxane-5-ylmethoxysulfinyl)N-methylcarbamoyloxythioacetimidate]	–	85 mg/kg	–
C=CCOCC(COS(=O)N(C)C(=O)ON=C(C)SC)OS(=O)N(C)C(=O)ON=C(C)SC (centres unmarked) [XI, N,N'-(3-Allyloxy-1,2-propanedioxysulfinyl)-bis (S-methyl N-methylcarbamoyloxythioacetimidate)]	40 mg/kg	50 to 80 mg/kg	–
C=CCOC(COS(=O)N(C)C(=O)ON=C(C)SC)COS(=O)N(C)C(=O)ON=C(C)SC (centres unmarked) [XII, N,N'-(2-Allyloxy-1,3-propanedioxysulfinyl)-bis (S-methyl N-methylcarbamoyloxythioacetimidate)]	< 50 mg/kg	88 mg/kg	–
CSC(C)=NOC(=O)N(C)S(=O)OCC(COCc1ccccc1)OS(=O)N(C)C(=O)ON=C(C)SC (centres unmarked) [XIII, N,N'-(3-Benzyloxy-1,2-propanedioxysulfinyl)-bis (S-methyl N-methylcarbamoyloxythioacetimidate)]	< 50 mg/kg	50 to 100 mg/kg	–
CSC(C)=NOC(=O)N(C)S(=O)OCC(COC(C)C)OS(=O)N(C)C(=O)ON=C(C)SC (centres unmarked) [XIV, N,N'-(3-Isopropoxy-1,2-propanedioxysulfinyl)-bis (S-methyl N-methylcarbamoyloxythioacetimidate)]	81.5 mg/kg	170 mg/kg	–
C=CCOCC(COS(=O)N(C)C(=O)Oc1cccc(C)c1)OS(=O)N(C)C(=O)Oc1cccc(C)c1 (centres unmarked) [XIX, N,N'-(3-Allyloxy-1,2-propanedioxysulfinyl)-bis (3-methylphenyl methylcarbamate)]	–	> 1000 mg/kg	–
CSC(C)=NOC(=O)N(C)S(=O)OCC(COS(=O)N(C)C(=O)ON=C(C)SC)OS(=O)N(C)C(=O)ON=C(C)SC (centres unmarked) [XV, N,N',N",-(1,2,3-Propanetrioxysulfinyl)-tris (S-methyl N-methylcarbamoyloxythioacetimidate)]	–	50 to 100 mg/kg	–
CSC(C)=NOC(=O)N(C)S(=O)OCC12OCC3OC(C)(C)OC3C1OC(C)(C)O2 (stereo not drawn) [XVI, S-Methyl N-(2,3,4,5-di-O-isopropylidene-1-α-O-fructopyranosylsulfinyl)-N-methylcarbamoyloxythioacetimidate]	50 mg/kg	500 mg/kg	–
CSC(C)=NOC(=O)N(C)S(=O)OC1C2OC(C)(C)OC2COC12COC(C)(C)O2 (centres unmarked) [XVII, S-Methyl N-(1,2,4,5-di-O-isopropylidene-3-O-fructopyranosylsulfinyl)-N-methylcarbamoyloxythioacetimidate]	115 mg/kg	1000 mg/kg	–
Cc1cccc(OC(=O)N(C)S(=O)OCC2COC(C)(C)O2)c1 (centres unmarked) [XX, 3-Methylphenyl N-(2,2-dimethyl-1,3-dioxolane-5-ylmethoxysulfinyl)-N-methylcarbamate]	–	> 1000 mg/kg	–
C=CCOC(COS(=O)N(C)C(=O)Oc1cccc(C)c1)COS(=O)N(C)C(=O)Oc1cccc(C)c1 (centres unmarked) [XXI, N,N'-(2-Allyloxy-1,3-propanedioxysulfinyl)-bis (3-methylphenyl methylcarbamate)]	–	> 1000 mg/kg	–
Cc1cccc(OC(=O)N(C)S(=O)OCC(COCc2ccccc2)OS(=O)N(C)C(=O)Oc2cccc(C)c2)c1 (centres unmarked) [XXII, N,N'-(3-Benzyloxy-1,2-propanedioxysulfinyl)-bis (3-methylphenyl methylcarbamate)]	–	> 1000 mg/kg	–
Cc1cccc(OC(=O)N(C)S(=O)OCC(COC(C)C)OS(=O)N(C)C(=O)Oc2cccc(C)c2)c1 (centres unmarked) [XXIII, N,N'-(3-Isopropoxy-1,2-propanedioxysulfinyl)-bis (3-methyl-phenyl methylcarbamate)]	–	> 1000 mg/kg	–

Structure (SMILES)	LD50 [1, 3]	LD50 [2]	LD50 ([1]; topical, 24 h)
Cc1cccc(OC(=O)N(C)S(=O)OCC23OCC4OC(C)(C)OC4C2OC(C)(C)O3)c1 (stereo not drawn) [XXIV, 3-Methylphenyl N-(2,3,4,5-di-O-isopropylidene-1-α-O-fructopyranosylsulfinyl)-N-methylcarbamate]	–	> 1000 mg/kg	–
C=CCOCC(COS(=O)N(C)C(=O)ON=C(SC)C(=O)N(C)C)OS(=O)N(C)C(=O)ON=C(SC)C(=O)N(C)C (centres unmarked) [XXIX, N,N'-(3-Allyloxy-1,2-propanedioxysulfinyl)-bis[S-methyl N-methylcarbamoyloxy-2-(N',N'-dimethylamino)-2-oxoethanimidothioate]]	215 mg/kg	12.5 to 25 mg/kg	–
Cc1cccc(OC(=O)N(C)S(=O)OC2C3OC(C)(C)OC3COC23COC(C)(C)O3)c1 (centres unmarked) [XXV, 3-Methylphenyl N-(1,2,4,5-di-O-isopropylidene-3-O-fructopyranosylsulfinyl)-N-methylcarbamate]	–	> 1000 mg/kg	–
Cc1cccc(OC(=O)N(C)S(=O)OC2C(C3COC(C)(C)O3)OC3OC(C)(C)OC32)c1 (centres unmarked) [XXVI, 3-Methylphenyl N-(1,2,5,6-di-O-isopropylidene-3-O-glucofuranosylsulfinyl)-N-methylcarbamate]	–	> 1000 mg/kg	–
CSC(=NOC(=O)N(C)S(=O)OC1COC(c2ccccc2)OC1)C(=O)N(C)C (centres unmarked) [XXVII, S-Methyl N-(2-phenyl-1,3-dioxane-5-ylmethoxysulfinyl)-N-methylcarbamoyloxy-2-(N',N'-dimethylamino)-2-oxoethanimidothioate]	161 mg/kg	25 mg/kg	–
CSC(=NOC(=O)N(C)S(=O)OCC1COC(C)(C)O1)C(=O)N(C)C (centres unmarked) [XXVIII, S-Methyl N-(2,2-dimethyl-1,3-dioxolane-5-ylmethoxysulfinyl)-N-methylcarbamoyloxy-2-(N'N'-dimethylamino)-2-oxoethanimidothioate]	2.6 mg/kg	31 mg/kg	–
CSC(=NOC(=O)N(C)S(=O)OCC(COCc1ccccc1)OS(=O)N(C)C(=O)ON=C(SC)C(=O)N(C)C)C(=O)N(C)C (centres unmarked) [XXXI, N,N'-(3-Benzyloxy-1,2-propanedioxysulfinyl)-bis-[S-methylcarbamoyloxy-2-(N',N'-dimethylamino)-2-oxoethanimidothioate]]	–	12.5 to 25 mg/kg	–
CSC(=NOC(=O)N(C)S(=O)OCC(COC(C)C)OS(=O)N(C)C(=O)ON=C(SC)C(=O)N(C)C)C(=O)N(C)C (centres unmarked) [XXXII, N,N'-(3-Isopropoxy-1,2-propanedioxysulfinyl)-bis[S-methyl N-methylcarbamoyloxy-2-(N',N'-dimethylamino)-2-oxoethanimidothioate]]	–	16 mg/kg	–
CC(C)OCC(COS(=O)N(C)C(=O)Oc1cccc2ccccc12)OS(=O)N(C)C(=O)Oc1cccc2ccccc12 (centres unmarked) [XXXIX, N,N'-(3-Isopropoxy-1,2-propanedioxysulfinyl)-bis(1-naphthyl methylcarbamate)]	–	> 1000 mg/kg	–
C=CCOCC(COS(=O)N(C)C(=O)Oc1cccc2ccccc12)OS(=O)N(C)C(=O)Oc1cccc2ccccc12 (centres unmarked) [XXXVI, N,N'-(3-Allyloxy-1,2-propanedioxysulfinyl)-bis(1-naphthyl methylcarbamate)]	–	> 1000 mg/kg	–
C=CCOC(COS(=O)N(C)C(=O)Oc1cccc2ccccc12)COS(=O)N(C)C(=O)Oc1cccc2ccccc12 (centres unmarked) [XXXVII, N,N'-(2-Allyloxy-1,3-propanedioxysulfinyl)-bis(1-naphthyl methylcarbamate)]	–	> 1000 mg/kg	–
CN(C(=O)Oc1cccc2ccccc12)S(=O)OCC(COCc1ccccc1)OS(=O)N(C)C(=O)Oc1cccc2ccccc12 (centres unmarked) [XXXVIII, N,N'-(3-Benzyloxy-1,2-propanedioxysulfinyl)-bis(1-naphthyl methylcarbamate)]	–	> 1000 mg/kg	–
CN(C(=O)Oc1cccc2ccccc12)S(=O)OCC(COS(=O)N(C)C(=O)Oc1cccc2ccccc12)OS(=O)N(C)C(=O)Oc1cccc2ccccc12 (centres unmarked) [XXXX, N,N',N"-(1,2,3-Propanetrioxysulfinyl)-tris-(1-naphthyl methylcarbamate)]	–	> 1000 mg/kg	–
CN(C(=O)Oc1cccc2ccccc12)S(=O)OCC12OCC3OC(C)(C)OC3C1OC(C)(C)O2 (stereo not drawn) [XXXXI, 1-Naphthyl N-(2,3,4,5-di-O-isopropylidene-1-α-O-fructopyranosylsulfinyl)-N-methylcarbamate]	–	> 1000 mg/kg	–
CN(C(=O)Oc1cccc2ccccc12)S(=O)OC1C2OC(C)(C)OC2COC12COC(C)(C)O2 (stereo not drawn) [XXXXII, 1-Naphthyl N-(1,2,4,5-di-O-isopropylidene-3-α-O-fructopyranosylsulfinyl)-N-methylcarbamate]	–	> 1000 mg/kg	–
CC(C)Oc1ccccc1OC(=O)N(C)S(=O)OCC(COS(=O)N(C)C(=O)Oc1ccccc1OC(C)C)OS(=O)N(C)C(=O)Oc1ccccc1OC(C)C (centres unmarked) [XXXXIII, N,N',N"(1,2,3-Propanetrioxysulfinyl)-tris-(2-isopropoxyphenyl methylcarbamate)]	–	> 1000 mg/kg	–
CC(C)Oc1ccccc1OC(=O)N(C)S(=O)OCC12OCC3OC(C)(C)OC3C1OC(C)(C)O2 (stereo not drawn) [XXXXIV, 2-Isopropoxyphenyl N-(2,3,4,5-di-O-isopropylidene-1-α-O-fructopyranosylsulfinyl)-N-methylcarbamate]	–	> 1000 mg/kg	–
CNC(=O)ON=C(C)SC [methomyl, reference compound]	3.7 mg/kg	–	–

From US4315026A, “Alkylpolyoxysulfinyl and alkylpolythiosulfinyl derivatives of carbamate esters” (priority 1980, dated 1982)
